# Assay results as given in patent US4745124A, “Orally effective anti-hypertensive agents” (priority 1983, dated 1988).
# “And” between values parts separate entries of the source, which are not always exact repeats. Identical values can stand only once.
# Key:
# [1] = tested on: ACE from guinea pig or human urine; experiment: inhibition of ACE prepared from guinea pig or human urine, [3H]-HipGlyGly substrate; assay type: biochemical; conditions: SQ 14,225 at 0.1 μM
# Procedure: B. In certain experiments, as identified, an alternative assay system was employed using [^3 H]-HipGlyGly as substrate as described by Ryan, J. W., et al., Biochem. J. 167 501 (1977).
# Fresh urine was ultrafiltered using a membrane (PTGC 142 05, Millipore Corp., Bedford, MA, U.S.A.) with a 10,000 MW retention limit. Typically, 500 ml of urine was ultrafiltered to approx. 15 ml and then the concentrated proteins were washed with water and then applied to a column (2.5×110 cm) of Sephacryl S-200, Trademark, Pharmacia Chemical Co., Uppsala, Sweden, previously equilibrated with 0.05M TrisHCl buffer, pH 8.0, with 0.5M NaCl. Under these conditions, ACE was eluted in two peaks; one, the major peak, was eluted just after the void volume (Ve /Vo =1.21) and the second (up to 20% of the total activity) at Ve /Vo =1.41. Enzyme activity was measured using [^3 H]-HipGlyGly as described in Example 1B. […] The activities were inhibited to a maximum of 84% by antibody to guinea pig lung ACE. The enzyme used herein was that of the first peak to emerge from the Sepacryl column. The enzyme preparation was concentrated about 10-fold by ultrafiltration. In one such experiment, the concentrated urinary protein solution obtained by ultrafiltration contained 2,400 m units of enzyme at 8.0 m units/mg of protein, and peak 1 from the Sephacryl column contained 1,100 m units at 814 m units/mg of protein. […]
# [2] = stability of aqueous solution of SQ 14225 on standing; assay type: physicochemical; conditions: 1 mg per ml, pH about 8, as little as 30 minutes
# [3] = oral; most patients; cited from earlier work
# [4] = target: T1, angiotensin converting enzyme (human urinary ACE) (Homo sapiens, UniProt P12821); experiment: ACE activity assay, I50 (Example 216A); assay type: biochemical; conditions: human urinary ACE; Benzoyl-GlyHisLeu 1×10^-4 M; Hepes pH 8.0; 37° C; in vitro; read-out: I50
# T1 construct: ACE purified from human urine; from tissue; host or cells: human urine (ultrafiltration and Sephacryl S-200, first eluting peak; prepared as in Ryan et al., Tissue and Cell 10, 555 (1978))
# T1 sequence (P12821 30-1232 limits assumed): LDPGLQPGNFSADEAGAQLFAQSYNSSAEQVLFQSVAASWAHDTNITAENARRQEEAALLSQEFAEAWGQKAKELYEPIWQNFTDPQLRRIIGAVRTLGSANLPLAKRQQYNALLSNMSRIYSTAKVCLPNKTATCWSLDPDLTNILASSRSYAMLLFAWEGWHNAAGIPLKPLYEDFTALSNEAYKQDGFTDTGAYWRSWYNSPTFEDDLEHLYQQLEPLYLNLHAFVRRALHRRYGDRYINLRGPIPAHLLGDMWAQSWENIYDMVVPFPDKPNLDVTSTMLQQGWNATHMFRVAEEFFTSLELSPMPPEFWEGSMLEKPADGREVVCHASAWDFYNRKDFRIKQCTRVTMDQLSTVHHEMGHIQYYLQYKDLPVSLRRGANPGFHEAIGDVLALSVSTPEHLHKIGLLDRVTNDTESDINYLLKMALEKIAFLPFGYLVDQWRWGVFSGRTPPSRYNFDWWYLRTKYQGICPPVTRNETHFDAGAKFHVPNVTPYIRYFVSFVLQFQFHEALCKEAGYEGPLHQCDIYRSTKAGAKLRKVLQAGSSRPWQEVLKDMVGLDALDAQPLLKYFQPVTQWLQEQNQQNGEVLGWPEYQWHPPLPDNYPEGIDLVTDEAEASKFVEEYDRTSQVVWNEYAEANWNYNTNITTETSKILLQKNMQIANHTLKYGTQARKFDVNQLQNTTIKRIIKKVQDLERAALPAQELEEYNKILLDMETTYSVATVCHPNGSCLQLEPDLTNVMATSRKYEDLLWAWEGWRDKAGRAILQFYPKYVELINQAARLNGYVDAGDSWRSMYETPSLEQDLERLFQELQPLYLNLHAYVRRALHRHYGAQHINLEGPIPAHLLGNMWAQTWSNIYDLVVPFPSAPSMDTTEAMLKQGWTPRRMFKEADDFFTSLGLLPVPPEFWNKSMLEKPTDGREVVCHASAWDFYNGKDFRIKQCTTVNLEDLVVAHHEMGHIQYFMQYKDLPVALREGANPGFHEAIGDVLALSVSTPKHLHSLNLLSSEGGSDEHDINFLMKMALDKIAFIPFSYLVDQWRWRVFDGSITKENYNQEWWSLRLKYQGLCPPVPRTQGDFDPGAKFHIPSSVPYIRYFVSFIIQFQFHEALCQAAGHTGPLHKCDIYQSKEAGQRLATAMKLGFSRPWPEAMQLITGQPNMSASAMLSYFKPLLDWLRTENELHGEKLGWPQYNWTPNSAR
# [5] = tested on: pressor effects of angiotensin I; experiment: oral effectiveness: blood pressure response to angiotensin I in anesthetized rats; assay type: in vivo, rat; conditions: for Blood pressure response to angiotensin I (% of control): oral 10 mg, Ex. 225; for Blood Pressure Response to 400 ng/kg of Angiotensin I: oral 17 μmol/kg, Ex. 228
# How it was run: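 Fasted rats under pentobarbital anesthesia (50-60 mg/kg i.p.), ventilated, with carotid arterial pressure recorded; i.v. angiotensin I (80 ng, 160 ng or 400 ng/kg) or angiotensin II (80 ng) challenges repeated at timed intervals after oral gavage of compound (2-20 mg/kg, 10 mg, 17 or 23 μmol/kg) in aqueous NaHCO3.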
# [6] = resistance of thioester compounds to alkaline hydrolysis; assay type: physicochemical
# From the text: Therefore the observed inhibitory effects cannot be accounted for by postulating spontaneous hydrolysis of the thioester bond to regenerate the free sulfhydryl group.
# [7] = tested on: pressor effects of angiotensin II; experiment: oral: blood pressure response to angiotensin II in anesthetized rats; assay type: in vivo, rat; conditions: 12 or 20 mg/kg
# Procedure: Rats (210-290 g body weight) were fasted overnight and then anesthetized with intraperitoneal pentobarbital, 50-60 mg/kg. Tracheostomy was performed and the animals were ventilated mechanically. A cannula was inserted into a femoral vein for injection of angiotensin I or II, and a second cannula was inserted into a common carotid artery for direct measurement of arterial blood pressure. Heparin, 1,000 units, was injected via the femoral vein to prevent coagulation. Blood pressure was measured with a pressure transducer connected to a polygraph. The rats were injected with 80 ng of angiotensin I or angiotensin II in 20 μl of 0.9 g % NaCl; an amount of antiotensin I or II sufficient to raise mean arterial blood pressure by 27-40 mm Hg. After the responsiveness of a given rat to angiotensins I and II was established, compound (I), at 2 or 5 mg/kg (drug dissolved in 0.5 ml of H2 O plus 10 μl of 1N NaHCO3), was given via a stomach tube. At timed intervals, the effects of 80 ng of angiotensin I or angiotensin II on mean arterial blood pressure were tested.
# Rats were prepared as described in Example 222. Compound (II) [N-benzoyl-L-phenylalanylthiopropanoyl)-L-proline] was given orally, via a stomach tube, at a dose of 12 mg/kg or 20 mg/kg. Compound (II) was dissolved in 0.5 ml of H2 O plus 10 μl of 1N NaHCO3. […]
# [8] = tested on: pressor effects of angiotensin I; experiment: intravenous effectiveness: blood pressure response to angiotensin I in anesthetized rats; assay type: in vivo, rat; conditions: i.v. 2 μmol/kg, Ex. 229
smiles,measurement,setting,value
"C[C@H](CS)C(=O)N1CCCC1C(=O)O (stereo in doubt) [SQ 14225, D-3-mercapto-2-methylpropanoyl-L-proline]",inhibition of activities of both ACE peaks,[1],inhibited completely
same,activity of aqueous solution on standing,[2],substantially less active
same,stability in normal gastric and intestinal environments,[3],sufficiently stable
"CC(SC(=O)C(Cc1ccccc1)NC(=O)c1ccccc1)C(=O)N1CC=C[C@H]1C(=O)O (stereo partly drawn) [(B), N-(2-benzoylphenylalanylthiopropanoyl)-L-3,4-dehydroproline]",IC50,[4],3 nM
same,Blood pressure response to angiotensin I (% of control),[5]; 3 min,100%
same,Blood pressure response to angiotensin I (% of control),[5]; 9 min,81%
same,Blood pressure response to angiotensin I (% of control),[5]; 14 min,74%
same,Blood pressure response to angiotensin I (% of control),[5]; 24 min,74%
same,Blood pressure response to angiotensin I (% of control),[5]; 28 min,74%
same,Blood pressure response to angiotensin I (% of control),[5]; 34 min,63%
same,Blood pressure response to angiotensin I (% of control),[5]; 44 min,56%
same,Blood pressure response to angiotensin I (% of control),[5]; 54 min,44%
same,Blood pressure response to angiotensin I (% of control),[5]; 64 min,56%
same,Blood pressure response to angiotensin I (% of control),[5]; 85 min,37%
same,Blood pressure response to angiotensin I (% of control),[5]; 94 min,44%
same,Blood pressure response to angiotensin I (% of control),[5]; 104 min,74%
same,Blood pressure response to angiotensin I (% of control),[5]; 114 min,56%
same,Blood pressure response to angiotensin I (% of control),[5]; 146 min,100%
"CC(SC(=O)C(Cc1ccccc1)NC(=O)c1ccccc1)C(=O)N1CCC[C@H]1C(=O)O (stereo partly drawn) [Compound (II), 2-benzoylphenylalanylthiopropanoyl-L-proline]",IC50,[4],70 nM and 40 nM
same,resistance to alkaline hydrolysis,[6],surprisingly resistant to alkaline hydrolysis
same,pressor effects of angiotensin II (specificity),[7],did not inhibit
same,Blood Pressure Response to 80 ng of Angiotensin I,"[5]; oral 12 mg/kg, 6 min, Rat 1",109 % of control
same,Blood Pressure Response to 80 ng of Angiotensin I,"[5]; oral 12 mg/kg, 12 min, Rat 1",80 % of control
same,Blood Pressure Response to 80 ng of Angiotensin I,"[5]; oral 12 mg/kg, 30 min, Rat 1",51 % of control
same,Blood Pressure Response to 80 ng of Angiotensin I,"[5]; oral 12 mg/kg, 47 min, Rat 1",71 % of control
same,Blood Pressure Response to 80 ng of Angiotensin I,"[5]; oral 12 mg/kg, 56 min, Rat 1",69 % of control
same,Blood Pressure Response to 80 ng of Angiotensin I,"[5]; oral 12 mg/kg, 76 min, Rat 1",63 % of control
same,Blood Pressure Response to 80 ng of Angiotensin I,"[5]; oral 12 mg/kg, 150 min, Rat 1",49 % of control
same,Blood Pressure Response to 80 ng of Angiotensin I,"[5]; oral 12 mg/kg, 158 min, Rat 1",57 % of control
same,Blood Pressure Response to 80 ng of Angiotensin I,"[5]; oral 20 mg/kg, 6 min, Rat 2",91 % of control
same,Blood Pressure Response to 80 ng of Angiotensin I,"[5]; oral 20 mg/kg, 12 min, Rat 2",70 % of control
same,Blood Pressure Response to 80 ng of Angiotensin I,"[5]; oral 20 mg/kg, 23 min, Rat 2",76 % of control
same,Blood Pressure Response to 80 ng of Angiotensin I,"[5]; oral 20 mg/kg, 30 min, Rat 2",76 % of control
same,Blood Pressure Response to 80 ng of Angiotensin I,"[5]; oral 20 mg/kg, 56 min, Rat 2",55 % of control
same,Blood Pressure Response to 80 ng of Angiotensin I,"[5]; oral 20 mg/kg, 76 min, Rat 2",40 % of control
same,Blood Pressure Response to 80 ng of Angiotensin I,"[5]; oral 20 mg/kg, 95 min, Rat 2",40 % of control
same,Blood Pressure Response to 80 ng of Angiotensin I,"[5]; oral 20 mg/kg, 142 min, Rat 2",76 % of control
same,Blood Pressure Response to 80 ng of Angiotensin I,"[5]; oral 20 mg/kg, 158 min, Rat 2",76 % of control
same,Blood Pressure Response to 80 ng of Angiotensin I,"[5]; oral 20 mg/kg, 166 min, Rat 2",76 % of control
same,Blood Pressure Response to 80 ng of Angiotensin I,"[5]; oral 20 mg/kg, 176 min, Rat 2",76 % of control
C[C@H](CSC(=O)[C@H](Cc1ccccc1)NC(=O)[C@H](CCCCN)NC(=O)C1CCCC1)C(=O)N1CCC[C@H]1C(=O)O [N-alpha-[3-(N-alpha-cyclopentylcarbonyl-L-lysyl-L-phenylalanylthio)-2-D-methylpropanoyl]-L-proline],IC50,[4],15 nM
same,Blood Pressure Response to 400 ng/kg of Angiotensin I,[8]; 3 min,8 % of Control
same,Blood Pressure Response to 400 ng/kg of Angiotensin I,[8]; 9 min,15 % of Control
same,Blood Pressure Response to 400 ng/kg of Angiotensin I,[8]; 14 min,23 % of Control
same,Blood Pressure Response to 400 ng/kg of Angiotensin I,[8]; 19 min,23 % of Control
same,Blood Pressure Response to 400 ng/kg of Angiotensin I,[8]; 24 min,33 % of Control
same,Blood Pressure Response to 400 ng/kg of Angiotensin I,[8]; 37 min,41 % of Control
same,Blood Pressure Response to 400 ng/kg of Angiotensin I,[8]; 45 min,46 % of Control
same,Blood Pressure Response to 400 ng/kg of Angiotensin I,[8]; 54 min,46 % of Control
same,Blood Pressure Response to 400 ng/kg of Angiotensin I,[8]; 77 min,46 % of Control
same,Blood Pressure Response to 400 ng/kg of Angiotensin I,[8]; 87 min,51 % of Control
same,Blood Pressure Response to 400 ng/kg of Angiotensin I,[5]; 5 min,59 % of Control
same,Blood Pressure Response to 400 ng/kg of Angiotensin I,[5]; 10 min,44 % of Control
same,Blood Pressure Response to 400 ng/kg of Angiotensin I,[5]; 15 min,44 % of Control
same,Blood Pressure Response to 400 ng/kg of Angiotensin I,[5]; 31 min,44 % of Control
same,Blood Pressure Response to 400 ng/kg of Angiotensin I,[5]; 37 min,38 % of Control
same,Blood Pressure Response to 400 ng/kg of Angiotensin I,[5]; 45 min,44 % of Control
same,Blood Pressure Response to 400 ng/kg of Angiotensin I,[5]; 55 min,44 % of Control
same,Blood Pressure Response to 400 ng/kg of Angiotensin I,[5]; 81 min,36 % of Control
same,Blood Pressure Response to 400 ng/kg of Angiotensin I,[5]; 93 min,36 % of Control
same,Blood Pressure Response to 400 ng/kg of Angiotensin I,[5]; 104 min,38 % of Control
